Biological target: Recombinant human PDK1 enzyme (aa 52-556) (Homo sapiens (Human), UniProt O15530)
Experiment: PDK1 kinase assay
Format: biochemical
Conditions: in vitro kinase assay, His6-PDK1 (aa 52-556), PDKtide, P33-ATP
Protocol: The activity of the compounds according to the invention on the kinase PDK1 which inhibits the signal transduction pathway is determined in an in vitro kinase assay with recombinantly prepared protein:
Recombinant human PDK1 enzyme (aa 52-556) linked at its N-terminal end to His6 is isolated from baculovirus-infected insect cells. Purified enzyme may be obtained for example from the University of Dundee, Scotland. The following components are combined in a well of a 96-well round-based dish (Greiner bio-one, No. 650101): • 15 μL of compound to be tested in varying concentrations (e.g. starting at 10 μM, and diluted in steps of 1:5) in APT buffer (50 mM Tris/Cl pH 7.5; 0.05% β-mercaptoethanol; 10 mM Mg-acetate; 0.0166% Tween 20; 3.33% DMSO) • 15 μL His6-PDK1 (aa 52-556) 3.33 ng/well) and PDKtide ([…]), synthesised by Pepceuticals Limited, Nottingham, United Kingdom; 25 μM final concentration); His6-PDK1 and PDKtide are together diluted accordingly in assay buffer (50 mM tris pH 7.5, 0.05% β-mercaptoethanol, 10 mM Mg-acetate); PDKtide is present in this mixture as an 83.3 μM solution. These 30 μl are routinely incubated for 30 min at RT. • 20 μL ATP solution (25 μM ATP with 1.0 μCi/well gamma-P33-ATP). The final concentration of Tween 20 is 0.005%.
The reaction is started by adding the ATP solution and the mixture is incubated for 90 min at RT. At the start of the reaction the dishes are shaken gently. The reaction is stopped by the addition of 50 μL/well of 500 mM phosphoric acid (H3PO4) and incubated for about 20 min at RT. The precipitate is transferred by harvesting onto filter plates (96-well microtitre filter plate: UniFilter GF/C; Perkin Elmer; No. 6005174), then washed 6 times with 50 mM H3PO4 and dried at 60° C. Then the plate is stuck down with sealing tape, 25 μL/well of scintillation solution (Microscint 0; Perkin Elmer; No. 6013611) are added and the amount of P33 precipitated is measured using the Wallac Betacounter. The measured data are evaluated using Graphpad Prism software.

Chain of Recombinant human PDK1 enzyme (aa 52-556) (O15530 52-556): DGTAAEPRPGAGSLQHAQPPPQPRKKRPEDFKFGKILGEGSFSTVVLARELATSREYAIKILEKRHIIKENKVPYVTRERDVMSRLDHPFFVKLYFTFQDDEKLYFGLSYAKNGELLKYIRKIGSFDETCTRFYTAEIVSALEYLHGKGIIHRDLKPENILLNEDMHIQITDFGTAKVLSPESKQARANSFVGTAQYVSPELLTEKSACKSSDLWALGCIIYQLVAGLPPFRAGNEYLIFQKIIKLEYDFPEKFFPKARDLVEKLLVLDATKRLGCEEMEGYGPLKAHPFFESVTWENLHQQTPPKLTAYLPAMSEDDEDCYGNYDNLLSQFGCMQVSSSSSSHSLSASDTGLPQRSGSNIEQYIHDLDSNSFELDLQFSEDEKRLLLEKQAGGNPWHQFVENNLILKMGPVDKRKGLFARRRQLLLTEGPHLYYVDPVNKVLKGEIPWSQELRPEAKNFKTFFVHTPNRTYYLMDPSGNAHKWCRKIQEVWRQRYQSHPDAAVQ

| IC50 [µM] | Structure (SMILES) |
| --- | --- |
| 0.086 | CCNc1c([N+](=O)[O-])cnc2ccc(C#CCNC(=O)c3cncn(Cc4ccc(F)c(F)c4)c3=O)cc12 [I-126] |
| 0.098 | CNc1c([N+](=O)[O-])cnc2ccc(C#CCNC(=O)c3cncn(Cc4ccc(F)c(F)c4)c3=O)cc12 [I-127] |
| 0.116 | CC(C)Nc1c([N+](=O)[O-])cnc2ccc(C#CCNC(=O)c3cncn(Cc4ccc(F)c(F)c4)c3=O)cc12 [I-128] |
| 0.012 | CNc1ncnc2ccc(C#CCNC(=O)c3cncn(Cc4ccc(F)c(F)c4)c3=O)cc12 [II-1] |
| 0.171 | CN1CC(Nc2ncnc3ccc(C#CCNC(=O)c4cncn(Cc5ccc(F)c(F)c5)c4=O)cc23)C1 [II-2] |
| 0.134 | CN(CCc1ccccc1)c1ncnc2ccc(C#CCNC(=O)c3cncn(Cc4ccc(F)c(F)c4)c3=O)cc12 [II-3] |
| 0.026 | CN(C)c1ncnc2ccc(C#CCNC(=O)c3cncn(Cc4ccc(F)c(F)c4)c3=O)cc12 [II-4] |
| 0.016 | CN(Cc1ccccc1)c1ncnc2ccc(C#CCNC(=O)c3cncn(Cc4ccc(F)c(F)c4)c3=O)cc12 [II-5] |
| 0.098 | O=C(NCC#Cc1ccc2ncnc(NCCc3ccco3)c2c1)c1cncn(Cc2ccc(F)c(F)c2)c1=O [II-6] |
| 0.105 | O=C(NCC#Cc1ccc2ncnc(NCCc3ccccn3)c2c1)c1cncn(Cc2ccc(F)c(F)c2)c1=O [II-7] |
| 0.091 | COc1ccc(CCNc2ncnc3ccc(C#CCNC(=O)c4cncn(Cc5ccc(F)c(F)c5)c4=O)cc23)cc1OC [II-8] |
| 0.443 | O=C(NCC#Cc1ccc2ncnc(N3CCNCC3)c2c1)c1cncn(Cc2ccc(F)c(F)c2)c1=O [II-9] |
| 0.229 | CN(C)CCNc1ncnc2ccc(C#CCNC(=O)c3cncn(Cc4ccc(F)c(F)c4)c3=O)cc12 [II-10] |
| 0.135 | O=C(NCC#Cc1ccc2ncnc(NCCCn3ccnc3)c2c1)c1cncn(Cc2ccc(F)c(F)c2)c1=O [II-11] |
| 0.161 | O=C(NCC#Cc1ccc2ncnc(NCCc3cccs3)c2c1)c1cncn(Cc2ccc(F)c(F)c2)c1=O [II-12] |
| 0.184 | O=C(NCC#Cc1ccc2ncnc(NCC(O)c3ccccc3)c2c1)c1cncn(Cc2ccc(F)c(F)c2)c1=O (stereo not drawn) [II-13] |
| 0.158 | COCCCNc1ncnc2ccc(C#CCNC(=O)c3cncn(Cc4ccc(F)c(F)c4)c3=O)cc12 [II-14] |
| 0.445 | CC(CNc1ncnc2ccc(C#CCNC(=O)c3cncn(Cc4ccc(F)c(F)c4)c3=O)cc12)c1ccccc1 (stereo not drawn) [II-15] |
| 0.218 | O=C(CNc1ncnc2ccc(C#CCNC(=O)c3cncn(Cc4ccc(F)c(F)c4)c3=O)cc12)c1ccccc1 [II-16] |
| 0.488 | NC(=O)[C@@H](Cc1ccccc1)Nc1ncnc2ccc(C#CCNC(=O)c3cncn(Cc4ccc(F)c(F)c4)c3=O)cc12 [II-17] |
| 0.041 | COc1ccc(CCNc2ncnc3ccc(C#CCNC(=O)c4cncn(Cc5ccc(F)c(F)c5)c4=O)cc23)cc1 [II-18] |
| 0.5 | CN(c1ncnc2ccc(C#CCNC(=O)c3cncn(Cc4ccc(F)c(F)c4)c3=O)cc12)C(C)(C)C [II-19] |
| 0.013 | CN(c1ncnc2ccc(C#CCNC(=O)c3cncn(Cc4ccc(F)c(F)c4)c3=O)cc12)C1CC1 [II-20] |
| 0.515 | O=C(NCC#Cc1ccc2ncnc(NC3CCOCC3)c2c1)c1cncn(Cc2ccc(F)c(F)c2)c1=O [II-21] |
| 0.142 | O=C(NCC#Cc1ccc2ncnc(NC3CCN(Cc4ccccc4)CC3)c2c1)c1cncn(Cc2ccc(F)c(F)c2)c1=O [II-23] |
| 0.077 | O=C(NCC#Cc1ccc2ncnc(NC3CCN(CCO)CC3)c2c1)c1cncn(Cc2ccc(F)c(F)c2)c1=O [II-24] |
| 0.126 | CC1CN(C)CCC1Nc1ncnc2ccc(C#CCNC(=O)c3cncn(Cc4ccc(F)c(F)c4)c3=O)cc12 (stereo not drawn) [II-25] |
| 0.137 | CN1CCCC1CCNc1ncnc2ccc(C#CCNC(=O)c3cccn(Cc4ccc(F)c(F)c4)c3=O)cc12 (stereo not drawn) [II-39] |
| 0.015 | CN(c1ccccc1)c1ncnc2ccc(C#CCNC(=O)c3cncn(Cc4ccc(F)c(F)c4)c3=O)cc12 [II-48] |

The next lines start with the molecule.

| Structure (SMILES) | IC50 [µM] |
| --- | --- |
| CC(C)(C)COc1ccnc2ccc(C#CCNC(=O)c3cccn(C(CO)c4ccc(F)c(F)c4)c3=O)cc12 (stereo not drawn) [I-125.14] | 0.06 |
| CCOc1ccnc2ccc(C#CCNC(=O)c3cccn(C(CO)c4ccc(F)c(F)c4)c3=O)cc12 (stereo not drawn) [I-125.15] | 0.011 |
| O=C(NCC#Cc1ccc2nccc(OCC3CCOCC3)c2c1)c1cccn(C(CO)c2ccc(F)c(F)c2)c1=O (stereo not drawn) [I-125.16] | 0.011 |
| CN1CCC[C@@H](COc2ccnc3ccc(C#CCNC(=O)c4cccn(Cc5cc(F)c(F)c(F)c5)c4=O)cc23)C1 [I-125.17] | 0.002 |
| CC(c1cc(F)c(F)c(F)c1)n1cccc(C(=O)NCC#Cc2ccc3nccc(OC[C@@H]4CCCN(C)C4)c3c2)c1=O (stereo partly drawn) [I-125.18] | 0.002 |
| O=C(NCC#Cc1ccc2nccc(OC[C@@H]3CCCN(CCN4CCOCC4)C3)c2c1)c1cccn(Cc2cc(F)c(F)c(F)c2)c1=O [I-125.19] | 0.003 |
| C[C@@H](c1cc(F)c(F)c(F)c1)n1cccc(C(=O)NCC#Cc2ccc3nccc(OC[C@@H]4CCCN(CCN5CCOCC5)C4)c3c2)c1=O [I-125.20] | 0.017 |
| CN1CCC[C@@H](COc2ccnc3ccc(C#CCNC(=O)c4cccn(C(CO)c5cc(F)c(F)c(F)c5)c4=O)cc23)C1 (stereo partly drawn) [I-125.21] | 0.002 |
| CC(C)N1CCC[C@@H](COc2ccnc3ccc(C#CCNC(=O)c4cccn(Cc5ccc(F)c(F)c5)c4=O)cc23)C1 [I-125.22] | 0.003 |
| O=C(NCC#Cc1ccc2nccc(OC[C@@H]3CCCNC3)c2c1)c1cccn(Cc2ccc(F)c(F)c2)c1=O [I-125.23] | 0.004 |
| CN(C)CCCOc1ccnc2ccc(C#CCNC(=O)c3cccn(C(CO)c4ccc(F)c(F)c4)c3=O)cc12 (stereo not drawn) [I-125] | 0.002 |
| CN(c1ncnc2ccc(C#CCNC(=O)c3cncn(Cc4ccc(F)c(F)c4)c3=O)cc12)C1CCCCC1 [II-22] | 0.371 |
| CNc1ncnc2ccc(C#CCNC(=O)c3cccn(Cc4ccsc4)c3=O)cc12 [II-26] | 0.199 |
| O=C(NCC#Cc1ccc2ncnc(N3CCCC3)c2c1)c1cccn(Cc2ccc(F)c(F)c2)c1=O [II-27] | 0.052 |
| CNCCCN(C)c1ncnc2ccc(C#CCNC(=O)c3cccn(Cc4ccc(F)c(F)c4)c3=O)cc12 [II-28] | 0.11 |
| CN1CCCN(c2ncnc3ccc(C#CCNC(=O)c4cccn(Cc5ccc(F)c(F)c5)c4=O)cc23)CC1 [II-29] | 0.156 |
| CC(=O)N[C@@H]1CCN(c2ncnc3ccc(C#CCNC(=O)c4cccn(Cc5ccc(F)c(F)c5)c4=O)cc23)C1 [II-30] | 0.021 |

| Structure (SMILES) | IC50 [µM] |
| --- | --- |
| O=C(NCC#Cc1ccc2ncnc(N3CC[C@H](O)C3)c2c1)c1cccn(Cc2ccc(F)c(F)c2)c1=O [II-31] | 0.114 |
| CC(C)(CO)CNc1ncnc2ccc(C#CCNC(=O)c3cccn(Cc4ccc(F)c(F)c4)c3=O)cc12 [II-32] | 0.124 |
| NC(=O)CCNc1ncnc2ccc(C#CCNC(=O)c3cccn(Cc4ccc(F)c(F)c4)c3=O)cc12 [II-33] | 0.079 |
| CN(CCCO)c1ncnc2ccc(C#CCNC(=O)c3cccn(Cc4ccc(F)c(F)c4)c3=O)cc12 [II-34] | 0.059 |
| NC(=O)CNc1ncnc2ccc(C#CCNC(=O)c3cccn(Cc4ccc(F)c(F)c4)c3=O)cc12 [II-35] | 0.059 |
| CC1(CNc2ncnc3ccc(C#CCNC(=O)c4cccn(Cc5ccc(F)c(F)c5)c4=O)cc23)COC1 [II-36] | 0.468 |
| O=C(NCC#Cc1ccc2ncnc(NCC(O)CO)c2c1)c1cccn(Cc2ccc(F)c(F)c2)c1=O (stereo not drawn) [II-37] | 0.044 |
| CN1CCC(CNc2ncnc3ccc(C#CCNC(=O)c4cccn(Cc5ccc(F)c(F)c5)c4=O)cc23)C1 (stereo not drawn) [II-38] | 0.097 |
| CN(C)C1CCN(c2ncnc3ccc(C#CCNC(=O)c4cccn(Cc5ccc(F)c(F)c5)c4=O)cc23)CC1 [II-40] | 0.074 |
| CC1(O)CCN(c2ncnc3ccc(C#CCNC(=O)c4cccn(Cc5ccc(F)c(F)c5)c4=O)cc23)CC1 [II-41] | 0.061 |
| CN(C)c1ncnc2ccc(C#CCNC(=O)c3cccn(Cc4cc[nH]n4)c3=O)cc12 [II-42] | 0.697 |
| CCN(CC)c1ncnc2ccc(C#CCNC(=O)c3cc(Cl)nn(Cc4ccc(F)c(F)c4)c3=O)cc12 [II-43] | 0.008 |
| CN(Cc1cnn(-c2ccc(F)cc2)c1)c1ncnc2ccc(C#CCNC(=O)c3cccn(Cc4ccc(F)c(F)c4)c3=O)cc12 [II-44] | 0.04 |
| COc1cccc(CN(C)c2ncnc3ccc(C#CCNC(=O)c4cccn(Cc5ccc(F)c(F)c5)c4=O)cc23)c1 [II-45] | 0.063 |
| CN(Cc1cccc2ncccc12)c1ncnc2ccc(C#CCNC(=O)c3cccn(Cc4ccc(F)c(F)c4)c3=O)cc12 [II-46] | 0.006 |
| CCN1CCC(CN(C)c2ncnc3ccc(C#CCNC(=O)c4cccn(Cc5ccc(F)c(F)c5)c4=O)cc23)C1 (stereo not drawn) [II-47] | 0.117 |
| CCN(CC)c1ncnc2ccc(C#CCNC(=O)c3c(C)n(CCO)n(Cc4ccc(F)c(F)c4)c3=O)cc12 [II-49] | 0.05 |

Source: US8575203B2, “Chemical compounds” (Boehringer Ingelheim International GmbH, priority 2010, dated 2013)
